Assay results from US20240018145A1, “[…]-DEPENDENT EN[…] TREATING OR […]” (priority 2020, published 2024).
Like-named read-outs stand apart in the source and are kept apart here.

Tested on: FLU A (PR/8/34)
Assay: Flu A Neuraminidase Antiviral Assay
Assay type: cell-based

Row | SMILES | EC50 | EC50 (MDCK, 48 h)
1 | Cc1ccccc1C1N2C(CCC13CC1C(C3)C1(F)F)N(C)C(=O)c1c(O)c(=O)ccn12 (single isomer, unassigned) [Compound 69B, 6,6-difluoro-7′-hydroxy-5′-methyl-1′-(o-tolyl)-3′,4′,4a′,5′-tetrahydro-1′H-spiro[bicyclo[3.1.0]hexane-3,2′-dipyrido[1,2-b:2′,1′-f][1,2,4]triazine]-6′,8′-dione] | 57 nM | –
2 | CC(C)O[C@H]1CC[C@H]2N(C)C(=O)c3c(O)c(=O)ccn3N2[C@@H]1c1ccccc1 [Compound 155, (1R,2S,4aS)-7-hydroxy-2-isopropoxy-5-methyl-1-phenyl-1,2,3,4,4a,5-hexahydrodipyrido[1,2-b:2′,1′-f][1,2,4]triazine-6,8-dione] | – | 185 nM
3 | CN1C(=O)c2c(O)c(=O)ccn2N2C(c3cccc(Br)c3)C(CC(F)(F)F)CCC12 (single isomer, unassigned) [Compound 83B, 1-(3-bromophenyl)-7-hydroxy-5-methyl-2-(2,2,2-trifluoroethyl)-1,2,3,4,4a,5-hexahydrodipyrido[1,2-b:2′,1′-f][1,2,4]triazine-6,8-dione] | 2.2 nM | –
4 | CN1C(=O)c2c(O)c(=O)ccn2N2C(c3ccccc3)C(C3CCC(F)(F)CC3)CCC12 (single isomer, unassigned) [Compound 84A, 2-(4,4-difluorocyclohexyl)-7-hydroxy-5-methyl-1-phenyl-1,2,3,4,4a,5-hexahydrodipyrido[1,2-b:2′,1′-f][1,2,4]triazine-6,8-dione] | > 810 nM | –
5 | CN1C(=O)c2c(O)c(=O)ccn2N2C1CCCC21CCCc2ccccc21 (single isomer, unassigned) [Compound 32A, 7-hydroxy-5-methyl-3,3′,4,4a,4′,5-hexahydro-2H,2′H-spiro[dipyrido[1,2-b:2′,1′-f][1,2,4]triazine-1,1′-naphthalene]-6,8-dione] | > 8100 nM | –
6 | CN1C(=O)c2c(O)c(=O)ccn2N2C(c3cccc(F)c3)C(CC(F)(F)F)CCC12 (single isomer, unassigned) [Compound 121B, 1-(3-fluorophenyl)-7-hydroxy-5-methyl-2-(2,2,2-trifluoroethyl)-1,2,3,4,4a,5-hexahydrodipyrido[1,2-b:2′,1′-f][1,2,4]triazine-6,8-dione] | 5.8 nM | –
7 | CN1C(=O)c2c(O)c(=O)ccn2N2C(c3ccccc3)CCCCC12 (single isomer, unassigned) [Compound 57B, 4-hydroxy-6-methyl-11-phenyl-6a,7,8,9,10,11-hexahydro-3H-pyrido[1′,2′:1,6][1,2,4]triazino[2,3-a]azepine-3,5(6H)-dione] | > 8100 nM | –
8 | CCN1C(=O)c2c(O)c(=O)ccn2N2C1CCCC2(C)c1ccccc1 (single isomer, unassigned) [Compound 36A, 5-ethyl-7-hydroxy-1-methyl-1-phenyl-1,2,3,4,4a,5-hexahydrodipyrido[1,2-b:2′,1′-f][1,2,4]triazine-6,8-dione] | 3.2 nM | –
9 | CS[C@H]1CC[C@@H](c2ccccc2)N2[C@@H]1N(C)C(=O)c1c(O)c(=O)ccn12 [Compound 147, (1S,4S,4aS)-7-hydroxy-5-methyl-4-(methylthio)-1-phenyl-1,2,3,4,4a,5-hexahydrodipyrido[1,2-b:2′,1′-f][1,2,4]triazine-6,8-dione] | – | 16.8 nM
10 | CN1C(=O)c2c(O)c(=O)ccn2N2C(c3ccccc3)CCCCC12 (single isomer, unassigned) [Compound 57A, 4-hydroxy-6-methyl-11-phenyl-6a,7,8,9,10,11-hexahydro-3H-pyrido[1′,2′:1,6][1,2,4]triazino[2,3-a]azepine-3,5(6H)-dione] | 95.5 nM | –
11 | CN1C(=O)c2c(O)c(=O)ccn2N2C1CC[C@H]1CCc3ccccc3[C@H]12 (stereo partly drawn) [Compound 150, Cis-16-hydroxy-2-methyl-2,2a,3,4,4a,5,6,10b-octahydrobenzo[h]pyrido[1′,2′:1,6][1,2,4]triazino[2,3-a]quinoline-1,15-dione] | – | 69.6 nM
12 | CN1C(=O)c2c(O)c(=O)ccn2N2C(c3ccccc3)CCC12 (single isomer, unassigned) [Compound 60A, 6-hydroxy-4-methyl-1-phenyl-2,3,3a,4-tetrahydro-1H-pyrido[2,1-f]pyrrolo[1,2-b][1,2,4]triazine-5,7-dione] | – | > 8100 nM
13 | CN1C(=O)c2c(O)c(=O)ccn2N2C(c3ccccc3)C3CCCC(C3)C12 (single isomer, unassigned) [Compound 11B, 4-hydroxy-6-methyl-12-phenyl-6,6a,7,8,9,10,11,12-octahydro-7,11-methanopyrido[1′,2′:1,6][1,2,4]triazino[2,3-a]azocine-3,5-dione] | > 8100 nM | –
14 | CC1CC2N(C)C(=O)c3c(O)c(=O)ccn3N2C(C)(c2ccccc2)C1 (single isomer, unassigned) [Compound 43B, 7-hydroxy-1,3,5-trimethyl-1-phenyl-1,2,3,4,4a,5-hexahydrodipyrido[1,2-b:2′,1′-f][1,2,4]triazine-6,8-dione] | 1100 nM | –
15 | CN1C(=O)c2c(O)c(=O)ccn2N2C1CCC(O)C2(C)c1ccccc1 (stereo not drawn) [Compound 137D, 2,7-dihydroxy-1,5-dimethyl-1-phenyl-1,2,3,4,4a,5-hexahydrodipyrido[1,2-b:2′,1′-f][1,2,4]triazine-6,8-dione] | 49.3 nM | –
16 | CN1C(=O)c2c(O)c(=O)ccn2N2[C@H](c3ccccc3)[C@H](OCC3CCC3)CC[C@@H]12 [Compound 160, (1R,2R,4aS)-2-(cyclobutylmethoxy)-7-hydroxy-5-methyl-1-phenyl-1,2,3,4,4a,5-hexahydrodipyrido[1,2-b:2′,1′-f][1,2,4]triazine-6,8-dione] | – | 18.1 nM
17 | CN1C(=O)c2c(O)c(=O)ccn2N2C(c3ccccc3C(F)(F)F)CCC12 (single isomer, unassigned) [Compound 15A, 6-hydroxy-4-methyl-1-(2-(trifluoromethyl)phenyl)-2,3,3a,4-tetrahydro-1H-pyrido[2,1-f]pyrrolo[1,2-b][1,2,4]triazine-5,7-dione] | > 8100 nM | –
18 | Cc1ccccc1C1C(CC(F)(F)F)CCC2N(C)C(=O)c3c(O)c(=O)ccn3N12 (single isomer, unassigned) [Compound 120B, 7-hydroxy-5-methyl-1-(o-tolyl)-2-(2,2,2-trifluoroethyl)-1,2,3,4,4a,5-hexahydrodipyrido[1,2-b:2′,1′-f][1,2,4]triazine-6,8-dione] | 1.9 nM | –
19 | CC(C)CC1CC(c2ccccc2)N2C(C1)N(C)C(=O)c1c(O)c(=O)ccn12 (single isomer, unassigned) [Compound 130A, 7-hydroxy-3-isobutyl-5-methyl-1-phenyl-1,2,3,4,4a,5-hexahydrodipyrido[1,2-b:2′,1′-f][1,2,4]triazine-6,8-dione] | – | > 8100 nM
20 | CN1C(=O)c2c(O)c(=O)ccn2N2C1CCC1(CC(F)(F)C1)C2c1ccccc1 (single isomer, unassigned) [Compound 74C, 3,3-difluoro-7′-hydroxy-5′-methyl-1′-phenyl-3′,4′,4a′,5′-tetrahydro-1′H-spiro[cyclobutane-1,2′-dipyrido[1,2-b:2′,1′-f][1,2,4]triazine]-6′,8′-dione] | 32.5 nM | –
21 | CN1C(=O)c2c(O)c(=O)ccn2N2C1CCC(C)(CC(F)(F)F)C2c1ccccc1 (single isomer, unassigned) [Compound 71B, 7-hydroxy-2,5-dimethyl-1-phenyl-2-(2,2,2-trifluoroethyl)-1,2,3,4,4a,5-hexahydrodipyrido[1,2-b:2′,1′-f][1,2,4]triazine-6,8-dione] | 18.5 nM | –
22 | CC1(c2ccccc2)CCCC2N(CC3CC3)C(=O)c3c(O)c(=O)ccn3N21 (single isomer, unassigned) [Compound 37A, 5-(cyclopropylmethyl)-7-hydroxy-1-methyl-1-phenyl-1,2,3,4,4a,5-hexahydrodipyrido[1,2-b:2′,1′-f][1,2,4]triazine-6,8-dione] | 11.4 nM | –
23 | CN1C(=O)c2c(O)c(=O)ccn2N2C1CCC(O)C2(C)c1ccccc1 (stereo not drawn) [Compound 137A, 2,7-dihydroxy-1,5-dimethyl-1-phenyl-1,2,3,4,4a,5-hexahydrodipyrido[1,2-b:2′,1′-f][1,2,4]triazine-6,8-dione] | 790 nM | –
24 | CC(C1CCC2N(C)C(=O)c3c(O)c(=O)ccn3N2C1c1ccccc1)C(F)(F)F (single isomer, unassigned) [Compound 109A, 7-hydroxy-5-methyl-1-phenyl-2-(1,1,1-trifluoropropan-2-yl)-1,2,3,4,4a,5-hexahydrodipyrido[1,2-b:2′,1′-f][1,2,4]triazine-6,8-dione] | 803 nM | –
25 | CN1C(=O)c2c(O)c(=O)ccn2N2[C@H](c3ccccc3)[C@H](OCC(F)F)CC[C@@H]12 (single isomer, unassigned) [Compound 153A] | 3060 nM | –
26 | CN1C(=O)c2c(O)c(=O)ccn2N2C(c3ccc(F)cc3)CCCC12 (single isomer, unassigned) [Compound 2A, 1-(4-fluorophenyl)-7-hydroxy-5-methyl-1,2,3,4,4a,5-hexahydrodipyrido[1,2-b:2′,1′-f][1,2,4]triazine-6,8-dione] | 109 nM | –
27 | CCN1C(=O)c2c(O)c(=O)ccn2N2C1CCCC2(C)c1cccc(C)n1 (single isomer, unassigned) [Compound 53A, 5-ethyl-7-hydroxy-1-methyl-1-(6-methylpyridin-2-yl)-1,2,3,4,4a,5-hexahydrodipyrido[1,2-b:2′,1′-f][1,2,4]triazine-6,8-dione] | > 810 nM | –
28 | CC1(c2ccccc2)CCCC2N(CC3COC3)C(=O)c3c(O)c(=O)ccn3N21 (single isomer, unassigned) [Compound 40B, 7-hydroxy-1-methyl-5-(oxetan-3-ylmethyl)-1-phenyl-1,2,3,4,4a,5-hexahydrodipyrido[1,2-b:2′,1′-f][1,2,4]triazine-6,8-dione] | > 8100 nM | –
29 | CN1C(=O)c2c(O)c(=O)ccn2N2C(c3ccccc3)C(C3(C(F)(F)F)CC3)CCC12 (single isomer, unassigned) [Compound 108B, 7-hydroxy-5-methyl-1-phenyl-2-(1-(trifluoromethyl)cyclopropyl)-1,2,3,4,4a,5-hexahydrodipyrido[1,2-b:2′,1′-f][1,2,4]triazine-6,8-dione] | 9.4 nM | –
30 | CN1C(=O)c2c(O)c(=O)ccn2N2C(c3ccccc3Cl)C(CC(F)(F)F)CCC12 (single isomer, unassigned) [Compound 119B, 1-(2-chlorophenyl)-7-hydroxy-5-methyl-2-(2,2,2-trifluoroethyl)-1,2,3,4,4a,5-hexahydrodipyrido[1,2-b:2′,1′-f][1,2,4]triazine-6,8-dione] | 2.7 nM | –
